# Measurements as given in patent publication US20260355318A1, “MOLECULAR MACHINES FOR TREATMENT OF CANCER, FUNGAL INFECTIONS, OR BACTERIAL INFECTIONS” (priority 2022, published 2026).
# Read-outs that look alike come from different tables or passages of the source.
# Columns and labels:
# [1] = system: P. aeruginosa; assay: MIC, P. aeruginosa; type: cell-based, Pseudomonas aeruginosa; settings: Pseudomonas aeruginosa, read-out: MIC of MM
# Experimental: (§1) The appropriate volume of an MM stock at 8 mM necessary to achieve a concentration ranging from 0.3125 to 40 μM was pipetted into a 2 mL microcentrifuge tube to which 1 mL of cell suspension prepared as previously described was added. Corresponding negative controls (DMSO only) were prepared in the same way. The mixture was gently mixed by pipetting and incubated in the dark at 30 or 37 ° C, depending on the strain, for 30 min with agitation (220 rpm). Afterward, MM- or DMSO-treated cells were dispensed in one well of a 24-well plate positioned in the center of the light beam (405 nm LED Light, Prizmatix, UHP—F-5-405) placed at the appropriate distance necessary to achieve the desired light intensity of 304 mW cm-2, 146 mW cm2 or 87 mW cm2, as measured with a handheld digital power meter console coupled to an S415C thermal power sensor head (Thorlabs, Newton, MA, USA). The temperature during irradiation was monitored using a thermocouple probe (Model SC-TT-K-30-36-PP; Omega Engineering, Inc., Stanford, CT, USA). Samples were agitated during irradiation. Dark controls were prepared as previously described except that no irradiation was provided.
# (§2) For MIC determination, samples treated with a range of concentrations of the different MM, as described above and were irradiated one at a time for 5 min at 146 mW cm^−2 (43.8 J cm^−2), after which irradiated aliquots were collected and inoculated into 1 mL MHB in a 2 mL microcentrifuge tube. Samples were incubated overnight at 30 or 37 ° C, depending on the strain, without agitation. Corresponding non-irradiated samples and negative controls (without bacteria) were also included. The following day, cultures were inspected for growth and the MIC was identified. The experimental procedure used to determine the MIC of visible light-activated MMs is schematically depicted in FIG. 26.
# [2] = system: persister cells of E. coli; assay: Persister eradication, E. coli; type: cell-based, Escherichia coli; settings: 1×MIC, 405 nm
# Experimental: (§3) Persister cells of E. coli were prepared by adding ampicillin (100 μg mL^−1) to exponential-phase cells (OD600 of ≈0.8) followed by continuous agitation for another 3 b, as previously described (Keren et al., 2004). In the case of S. aureus, almost all stationary-phase are considered to be persistent (Keren et al., 2004). S. aureus cells were grown at 37 ° C and 220 rpm in LB broth to an OD600 of 0.3. Cells were then diluted 1:1000 in 25 mL LB and grown for 16 h at 37 ° C and 220 rpm in 250 mL flasks. […] At specified time points (0, 1, 2, 3, 4 and 5, 10 and 15 min), 50-μL aliquots were removed, serially diluted and spot-plated onto LB agar plates to determine colony-forming units per mL (CFU mL^−1). Only dilutions that yielded 10-100 colonies were counted. Results were expressed as log (N/NO) whereby N is the CFU mL^−1 at each irradiation time point and NO is the initial CFU mL^−1 of the corresponding sample. […].
# [3] = system: persister cells of P. aeruginosa; assay: Persister eradication, P. aeruginosa; type: cell-based, Pseudomonas aeruginosa; settings: 1×MIC, 405 nm
# [4] = system: A. baumannii; assay: MIC, A. baumannii; type: cell-based, Acinetobacter baumannii; settings: Acinetobacter baumannii, read-out: MIC of MM
# Experimental: as §1, §2
# [5] = system: S. aureus; assay: MIC, S. aureus; type: cell-based, Staphylococcus aureus; settings: Staphylococcus aureus, read-out: MIC of MM
# Experimental: as §1, §2
# [6] = system: E. coli; assay: MIC, E. coli; type: cell-based, Escherichia coli BW25113; settings: Escherichia coli, read-out: MIC of MM
# [7] = system: persister cells of S. aureus; assay: Persister eradication, S. aureus; type: cell-based, Staphylococcus aureus; settings: 1×MIC, 405 nm
# Experimental: as §3
# [8] = system: S. aureus; assay: Time-kill / light-dose experiments, S. aureus; type: cell-based, Staphylococcus aureus; settings: 2×MIC, 146 mW cm^−2 405 nm
# Experimental: (§4) Serial dilutions of irradiated cell suspensions were prepared in PBS. A volume of 10 AL of the appropriate serial dilutions was spot-plated onto LB agar plates. Following overnight incubation at 30 or 37 ° C, depending on the strain, bacterial viability was assessed as colony forming units (CFU) per mL. Results were expressed as log (N/NO) whereby N is the CFU mL^−1 at each irradiation time point and NO is the initial CFU mL^−1 of the corresponding sample. Only dilutions that yielded 10-100 colonies were counted.
# [9] = system: E. coli; assay: Time-kill / light-dose experiments, E. coli; type: cell-based, Escherichia coli; settings: for time to reduce cell number to limit of detection: E. coli, 2×MIC, 146 mW cm^−2 405 nm
# Experimental: as §4
# [10] = system: A. baumannii; assay: Time-kill / light-dose experiments, A. baumannii; type: cell-based, Acinetobacter baumannii; settings: 2×MIC, 146 mW cm^−2 405 nm
# Experimental: as §4
# [11] = system: P. aeruginosa; assay: Time-kill / light-dose experiments, P. aeruginosa; type: cell-based, Pseudomonas aeruginosa; settings: 2×MIC, 146 mW cm^−2 405 nm
# Experimental: as §4
# [12] = system: C. albicans; assay: MIC, visible-light-activated MMs and conventional antifungals, C. albicans; type: cell-based, Candida albicans (ATCC 18804); settings: Candida albicans, read-out: MIC of antifungal agent
# Experimental: C. albicans cell suspensions were incubated with increasing concentrations of MMs and irradiated with 405-nm light at 292 mW cm^−2 for 5 min (87.6 J cm^−2). The minimum inhibitory concentration (MIC) was defined as the MM concentration resulting in no visible fungal growth after irradiation with 87.6 J cm^−2 of 405-nm light.
# (§5) Cell suspensions for susceptibility testing (MMs and conventional antifungals) were prepared per the Clinical & Laboratory Standards Institute (CLSI) guidelines (CLSI, 2017; CLSI, 2008). Before testing, yeasts (C. albicans and S. cerevisiae) were sub-cultured in Sabouraud Dextrose Agar-Emmons Modification (SDAE) plates and grown for 24 h at 30 °C. Five independent colonies from 24-h-old plates were collected and diluted to ~10^4 colony forming units (CFU) per mL in sterile saline (CLSI, 2017). Molds (A. fumigatus and the dermatophytes T. rubrum and M. gypseum) were sub-cultured on SDAE medium and incubated for 7 days at 28 °C. Conidia were recovered by covering the plates with sterile distilled water and scraping the colonies. The suspensions were filtered (8-μm pore size) and diluted in saline to ~10^4 CFU mL^−1 (Santos and Hamdan, 2005).
# (§6) After a 30-min incubation in the dark, cell suspensions were transferred to small, sterilized glass beakers, which were then placed in a water bath. Each sample was irradiated with 405-nm light at 292 mW cm^−2 for 5 min, corresponding to a light dose of 87.6 J cm^−2, determined using an S415C thermal power sensor (Thorlabs, Newton, MA, USA). During irradiation, the cell suspensions were agitated with a small metal stirrer. A thermocouple probe (model SC-TT-K-30-36-PP; Omega Engineering, Inc., Stanford, CT, USA) was used to monitor the temperature during irradiation. Irradiated cell suspensions were inoculated in 3-(N-morpholino) propanesulfonic acid (MOPS)-buffered Roswell Park Memorial Institute Medium (RPMI) 1640 (pH 7.0). Tubes were incubated at 30 ° C for 48 h (yeasts) and 28 ° C for 7 days (molds). The antifungal or MM concentration resulting in no visible growth was defined as the minimum inhibitory concentration (MIC) (CLSI, 2017; CLSI, 2008). Similarly prepared cell suspensions were used to determine the MIC of conventional antifungals.
# [13] = system: S. cerevisiae; assay: MIC, MMs and antifungals, S. cerevisiae; type: cell-based, Saccharomyces cerevisiae (ATCC 13007); settings: Saccharomyces cerevisiae, broth microdilution, read-out: MIC of antifungal agent
# Experimental: as §5, §6
# [14] = system: persister cells of A. baumannii; assay: Persister eradication, A. baumannii; type: cell-based, Acinetobacter baumannii; settings: 1×MIC, 405 nm
# [15] = system: E. coli; assay: Effect of ROS scavengers on MM 1-induced killing of E. coli; type: cell-based, Escherichia coli; settings: MM 1 2×MIC, NAC 1 mM, TU 100 mM
# From the text: All results are shown as the mean of at least 3 biological replicas±standard error of the mean.
# [16] = system: A. fumigatus; assay: MIC, MMs and antifungals, A. fumigatus; type: cell-based, Aspergillus fumigatus (ATCC 1022); settings: Aspergillus fumigatus, read-out: MIC of antifungal agent
# Experimental: as §5
# After a 30-min incubation in the dark, cell suspensions were transferred to small, sterilized glass beakers, which were then placed in a water bath. Each sample was irradiated with 405-nm light at 292 mW cm^−2 for 5 min, corresponding to a light dose of 87.6 J cm^−2, determined using an S415C thermal power sensor (Thorlabs, Newton, MA, USA). During irradiation, the cell suspensions were agitated with a small metal stirrer. […]
# [17] = system: biofilms of P. aeruginosa and S. aureus; assay: Biofilm total bacterial cell number (acridine orange); type: cell-based, Pseudomonas aeruginosa, Staphylococcus aureus; settings: 2×MIC, vs untreated controls
# Experimental: (§7) This combination of methods is effective at evaluating the antibiofilm potential of chemicals (Stiefel et al., 2016). P. aeruginosa and S. aureus were grown overnight in tryptic soy broth (TSB) medium. The overnight cultures were diluted in 1:100 in fresh media and 100 μL aliquots were distributed in a 96-well plate. After 24 h of static growth at 37 ° C, planktonic cells were removed by inverting the plate onto a stack of paper towels, and the biofilm was washed three times with PBS. After washing, MM 1, MM 5, or MM 6 were added at 2×MIC to the biofilm and incubated statically in the dark for 60 min. The biofilm was then irradiated for 15, 30, or 45 min at 146 mW cm2. For the determination of the total bacterial number, acridine orange solution (2% in H2O) diluted 1:100 in Walpole's buffer (27.2 g L-1 sodium acetate trihydrate, adjusted to pH 4 with glacial acetic acid) was added to the wells.
# [18] = system: biofilms of P. aeruginosa and S. aureus; assay: Biofilm metabolically active cells (ATP); type: cell-based, Pseudomonas aeruginosa, Staphylococcus aureus; settings: 2×MIC, antibiotics 45 min, MMs 15 min + light, vs untreated
# Experimental: as §7
# For quantification of viable cells in biofilms, following the addition of 100 μL […] of TSB to each well, bacteria were detached from the biofilm by thorough mixing, after which […] of BacTiter-Glo™ reagent, prepared according to the manufacturer's instructions, was added to each well.
# [19] = E. coli BW25113, 405 nm light 43.8 J cm^−2
# [20] = E. coli, Table 9, 405 nm light 43.8 J cm^−2
Structure (SMILES),MIC [1],time to reduce persister cells to limit of detection [2],MIC [4],MIC [5],"MIC [6, 20]",time to reduce persister cells to limit of detection [7],time to complete elimination [8],also measured
"C[C@@H]1Cc2cc(NCCN(C)C)c3ccccc3c2C1=C1c2ccccc2Sc2ccccc21 (stereo in doubt) [MM 2, N^1,N^1-Dimethyl-N^2-(2-methyl-1-(9H-thioxanthen-9-ylidene)-2,3-dihydro-1H-cyclopenta[a]naphthalen-5-yl) ethane-1,2-diamine]",5 µM,5 min,20 µM,1.25 µM,32 µM,3 min,4 min,"time to reduce persister cells to limit of detection [3]: 15 min; MIC [6, 19]: 32 µM; time to reduce cell number to limit of detection [9]: 10 min"
"Br.COc1cc2c(c3ccccc13)/C(=C1\c3ccccc3Sc3ccc(C#CCCCC[P+](c4ccccc4)(c4ccccc4)c4ccccc4)cc31)[C@H](C)C2 (stereo in doubt) [MM 4, (6-(9-(5-methoxy-2-methyl-2,3-dihydro-1H-cyclopenta[a]naphthalen-1-ylidene)-9H-thioxanthen-2-yl)hex-5-yn-1-yl)triphenylphosphonium bromide]",0.625 µM,5 min,2.5 µM,0.078 µM,1 µM,3 min,2 min,"time to reduce cell number to limit of detection [10]: 3 min; time to reduce cell number to limit of detection [11]: 3 min; MIC [6, 19]: 0.625 µM; time to reduce cell number to limit of detection [9]: 4 min; bacterial toxicity in the absence of light ([9]; FIG. 31, different bacterial strains, no light): Some toxicity of the MM itself (in the absence of light)"
"CC[C@H](C)C[C@H](C)CCCCCCCCC(=O)N[C@H]1C[C@@H](O)[C@@H](NCCN)NC(=O)[C@@H]2[C@@H](O)CCN2C(=O)[C@H]([C@H](O)CCN)NC(=O)[C@H]([C@H](O)[C@@H](O)c2ccc(O)cc2)NC(=O)[C@@H]2C[C@@H](O)CN2C(=O)[C@H]([C@@H](C)O)NC1=O [Caspofungin (CAS), Caspofungin]",,,,,,,,MIC [12]: 0.25 µg/mL; MIC [13]: 0.5 µg/mL
"C[C@@H]1Cc2cc(N(C)CCN(C)C)c3ccccc3c2C1=C1c2ccccc2Sc2ccccc21 [MM 3, N^1,N^1,N^2-trimethyl-N^2-(2-methyl-1-(9H-thioxanthen-9-ylidene) ~2,3-dihydro-1H-cyclopenta[a]naphthalen-5-yl) ethane-1,2-diamine]",5 µM,10 min,20 µM,1.25 µM,16 µM,10 min,4 min,time to reduce cell number to limit of detection [10]: 10 min; time to reduce cell number to limit of detection [11]: 10 min; time to reduce persister cells to limit of detection [14]: 15 min
CC(=O)N[C@@H](CS)C(=O)O [N-acetyl-L-cysteine],,,,,,,,protection against MM-induced killing by ROS scavenger [15]: does not protect against MM-induced killing in E. coli
"C[C@@H](c1ncncc1F)[C@](O)(Cn1cncn1)c1ccc(F)cc1F [Voriconazole (VRC), Voriconazole]",,,,,,,,MIC [12]: 0.03 µg/mL; MIC [13]: 0.125 µg/mL; MIC [16]: 0.5 µg/mL
CO[C@H]1/C=C/O[C@@]2(C)Oc3c(C)c(O)c4c(O)c(c(/C=N/N5CCN(C)CC5)c(O)c4c3C2=O)NC(=O)/C(C)=C\C=C\[C@H](C)[C@H](O)[C@@H](C)[C@@H](O)[C@@H](C)[C@H](OC(C)=O)[C@@H]1C [rifampin],,,,,,,,reduction in total bacterial cell number in biofilm [17]: ≤ 64%; reduction in metabolically active cells in biofilm [18]: 18%
NC(N)=S [thiourea],,,,,,,,protection against MM-induced killing by ROS scavenger [15]: does not protect against MM-induced killing in E. coli
